Assay [1] in a line: O2 equilibrium binding curves of rHb and native Hb (Hemox analyzer). As to conditions: 37° C.; for P50: O2 affinity; for N (cooperativity coefficient n): O2 equilibrium. It counts as biochemical. The method, then:
rHb Analysis. Various liganded forms of rHb were analyzed via UV-Vis spectroscopy and compared against native Hb. The oxy-rHb and oxyHb equilibrium binding curves were measured using a Hemox analyzer (TCS Scientific Corp., New Hope, Pa.) at 37° C. The spectra of rHb was measured after one day reaction with excess heme (stage 1), after reduction and diafiltration with the modified HEMOX buffer (stage 2), after placing the rHb mixture under a CO atmosphere (stage 3), after heating the CO-rHb mixture and removing precipitate (stage 4), and after re-oxygenating the rHb sample (stage 5). Spectral deconvolution software was developed in the Python programming language (Python Software Foundation Beaverton, Oreg.) using the non-linear least squares function curve_fit of the SciPy package to determine the fraction of various liganded forms of rHb that contribute to the final spectra of the rHb mixture (i.e. containing metHb, hemichrome, oxyHb, HbCO and heme).

Assay [2] is described as follows: Specificity of Al-PC binding to proteins (UV-visible absorbance at 680 nm). As to conditions: absorbance at 680 nm after Al-PC addition in PBS.
Description: The stock Al-PC solution was diluted 100× into 100% EtOH.
The concentrations of Hp, HSA, Hb and rHb in solution were 1.0 mg/mL, 0.35 mg/ml (and 3.5 mg/ml), 0.35 mg/mL, and 0.33 mg/mL respectively.

Where “and” joins values, the source holds several entries; their conditions need not be identical. Equal values may be shown once. Marks after values point to notes of the source that are not given here.

Turning to “TFF rHb Concentrated: reconstituted Hb made from concentrated TFF-apoHb”, in assay [1], the P50 worked out at 11.36 ± 0.87 mm Hg and the “N (cooperativity coefficient n)” value was 2.14 ± 0.17^a. Also, in assay [1] (listed as concentrated rHb), the P50 was found to be 11.36±0.87 mm Hg and the “N (cooperativity coefficient n)” value worked out at 2.14±0.17.

With “TFF rHb: reconstituted Hb made from TFF-apoHb and heme”, the Al-PC binding entry in assay [2] was “no appreciable binding of Al-PC”. Also, the P50 in assay [1] was 11.52±0.02 mm Hg and 11.20 ± 0.43 mm Hg. In assay [1] (listed as unconcentrated rHb), the P50 was 11.20±0.43 mm Hg and the “N (cooperativity coefficient n)” value was 2.27±0.10.

These data come from patent publication US20220218834A1, “APOHEMOGLOBIN-HAPTOGLOBIN COMPLEXES AND METHODS OF USING THEREOF” (OHIO STATE INNOVATION FOUNDATION, priority 2019, published 2022).
